According to PubChem BioAssay (NCI):
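Results reflect a 48-hour exposure of cells in 96-well plates to compound at five concentrations. At the TGI there is no net growth.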

Tests used:
Test in all cases: NCI-60 cell line screen, 48 h
CCRF-CEM leukemia = test system: CCRF-CEM leukemia
HCT-15 colon = test system: HCT-15 colon
HCT-116 colon = test system: HCT-116 colon
U251 CNS = test system: U251 CNS
IGROV1 ovarian = test system: IGROV1 ovarian
SF-268 CNS = test system: SF-268 CNS
K-562 leukemia = test system: K-562 leukemia
T-47D breast = test system: T-47D breast
MDA-N = test system: MDA-N
DLD-1 colon = test system: DLD-1 colon

Row | SMILES | TGI (CCRF-CEM leukemia) [µM] | TGI (HCT-15 colon) [µM] | TGI (HCT-116 colon) [µM] | TGI (U251 CNS) [µM] | TGI (IGROV1 ovarian) [µM] | TGI (SF-268 CNS) [µM] | TGI (K-562 leukemia) [µM] | TGI (T-47D breast) [µM] | TGI (MDA-N) [µM] | TGI (DLD-1 colon) [µM]
1 | NS(=O)(=O)c1ccc(NNc2c3ccccc3nc3c(C(=O)Nc4ccc(S(=O)(=O)Nc5ncccn5)cc4)cccc23)cc1 | > 25 | > 25 | > 25 | > 25 | > 25 | > 25 | > 25 | > 25 | > 25 | –
2 | O=C1C=CC2(C=C1)C[C@H](NC(=O)C(F)(F)F)C(=O)O2 | 50.9 | > 100 | > 100 | > 100 | – | > 100 | 65.8 | – | – | 53.1
3 | C[C@@H]1C[C@]2(C[C@@H](C)C3[C@@H](CC4(C)[C@@H]5CCC6C(C)(C)OC(=O)C=C[C@]67C[C@@]5(CC[C@]34C)OO7)O2)OC1=O (some centres not stated) | – | > 100 | > 100 | > 100 | > 100 | – | > 100 | – | – | > 100
4 | Cc1cc(Cl)cc2c1NC(=O)C2=O (tested in a mixture with another compound) | 44.9 | > 100 | > 100 | > 100 | > 100 | > 100 | > 100 | – | – | > 100
5 | COC(=O)CC(C(C(C)=O)C(=O)OCc1ccccc1)N1C(=O)OCC1c1ccccc1 (configuration not stated) | > 100 | > 100 | > 100 | > 100 | > 100 | > 100 | > 100 | – | – | > 100
6 | CC(=O)OC1CC2C(=O)C(=O)C1(C)C2(C)C (configuration not stated) | > 100 | > 100 | > 100 | > 100 | > 100 | > 100 | > 100 | > 100 | > 100 | –
7 | CCSC(SCC)=C1C(=O)N(c2ccccc2)N=C1C | 11 | 24.7 | 28.3 | – | 33.2 | 29.1 | 23.3 | – | – | 26.8
8 | C[N+](C)(C)CC1CCCC(C[N+](C)(C)C)C1O (configuration not stated) | > 100 | > 100 | > 100 | > 100 | > 100 | > 100 | > 100 | – | – | > 100
9 | CCCCCCCCCCCCOP(N)(=O)OCCCCCCCCCCCC | > 100 | > 100 | > 100 | > 100 | > 100 | > 100 | > 100 | – | – | > 100
10 | COc1cccc(NC(=O)C(=O)C(C(C)=O)c2nc3ccc(Cl)cc3[nH]c2=O)c1 (configuration not stated) | > 100 | > 100 | > 100 | > 100 | > 100 | > 100 | > 100 | – | – | > 100
11 | CNC(=O)CN(CC(N)=O)C(N)=O | > 100 | > 100 | – | > 100 | > 100 | > 100 | > 100 | – | – | > 100
12 | Cc1c(C(=O)CSc2nc3ccccc3[nH]2)c(=O)n(-c2ccccc2)n1C | > 100 | > 100 | > 100 | > 100 | > 100 | > 100 | – | – | – | > 100
13 | CSc1ccc(C(=O)C(=O)c2ccc(SC)s2)s1 | > 10 | > 10 | > 10 | > 10 | > 10 | > 10 | > 10 | > 10 | > 10 | –
14 | C(/Cc1ccc2c(c1)OCO2)=N\NC1=NCCCN1 | > 100 | > 100 | > 100 | > 100 | > 100 | > 100 | > 100 | > 100 | > 100 | –
15 | CS(=O)(=O)NC12CCC(c3ccccc31)c1ccccc12 | > 100 | > 100 | > 100 | > 100 | > 100 | > 100 | > 100 | > 100 | > 100 | –
16 | N#CC1C=Cc2ccccc2N1C(=O)Oc1ccccc1 (configuration not stated) | 81.6 | > 100 | > 100 | > 100 | > 100 | > 100 | > 100 | > 100 | > 100 | –
17 | CCCCCCCCCCCCCc1nn[nH]n1 | 41.7 | 34.6 | 31.7 | 32.8 | 41.1 | 40.5 | – | – | – | 31.8
18 | CCOc1ccc(C(CN2CCOCC2)C(C)=O)cc1OC (configuration not stated) | 26.1 | 22.5 | 43.5 | 31.9 | 49.6 | 41 | 13.9 | – | – | 27.9
19 | CC1CCC2N(C1)CC1C3(O)CC45OC6(O)C(O)CCC4(C)C6CCC5C3(O)CC(O)C1(O)C2(C)O (configuration not stated) | > 100 | > 100 | > 100 | > 100 | > 100 | > 100 | > 100 | > 100 | > 100 | –
